Source: ChEMBL document CHEMBL1125527, “Disodium (R,R)-5-[2-[[2-(3-chlorophenyl)-2-hydroxyethyl]-amino] propyl]-1,3-benzodioxole-2,2-dicarboxylate (CL 316,243). A potent beta-adrenergic agonist virtually specific for beta 3 receptors. A promising antidiabetic and antiobesity agent” (J Med Chem, 1992)
pEC50, pIC50: −log10 of the molar value.

Columns and labels:
[1] = molecular target: T1, Beta-2 adrenergic receptor (Rattus norvegicus, UniProt P10608)
Description: In vitro beta-adrenergic activity against beta-1 adrenergic receptor by the inhibition of insulin stimulated [14C]- glucose incorporation into glycogen in isolated rat soleus muscle

[2] = molecular target: Beta-1 adrenergic receptor (Rattus norvegicus, UniProt P18090); assay: Compound was evaluated for its binding affinity towards Beta-1 adrenergic receptor in rat heart membrane by displacing [125I]- iodocyanopindolol; assay type: cell membranes
[3] = molecular target: T1, Beta-2 adrenergic receptor; assay: Compound was evaluated for its binding affinity towards Beta-2 adrenergic receptor in rat soleus membrane by displacing […]; assay type: cell membranes
[4] = molecular target: Beta-3 adrenergic receptor (Rattus norvegicus, UniProt P26255); assay: In vitro beta-adrenergic activity against beta-3 adrenergic receptor in rat epididymal fat pads by stimulation of glycerol release from adipocytes.; assay type: functional, tissue-based, Epididymal fat pad
Chain of Beta-3 adrenergic receptor (P26255 whole entry): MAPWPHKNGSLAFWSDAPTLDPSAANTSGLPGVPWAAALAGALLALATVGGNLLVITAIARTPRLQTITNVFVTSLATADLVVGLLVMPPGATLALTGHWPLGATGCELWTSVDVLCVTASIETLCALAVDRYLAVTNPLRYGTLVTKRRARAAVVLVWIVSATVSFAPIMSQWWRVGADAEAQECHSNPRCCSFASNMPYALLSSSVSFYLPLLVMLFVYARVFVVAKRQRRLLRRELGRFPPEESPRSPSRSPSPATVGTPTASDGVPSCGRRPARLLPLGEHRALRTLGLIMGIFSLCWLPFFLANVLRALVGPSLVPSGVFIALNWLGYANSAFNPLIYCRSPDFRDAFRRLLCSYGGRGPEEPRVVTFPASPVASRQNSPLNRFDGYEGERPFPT

T1 sequence (P10608 whole entry): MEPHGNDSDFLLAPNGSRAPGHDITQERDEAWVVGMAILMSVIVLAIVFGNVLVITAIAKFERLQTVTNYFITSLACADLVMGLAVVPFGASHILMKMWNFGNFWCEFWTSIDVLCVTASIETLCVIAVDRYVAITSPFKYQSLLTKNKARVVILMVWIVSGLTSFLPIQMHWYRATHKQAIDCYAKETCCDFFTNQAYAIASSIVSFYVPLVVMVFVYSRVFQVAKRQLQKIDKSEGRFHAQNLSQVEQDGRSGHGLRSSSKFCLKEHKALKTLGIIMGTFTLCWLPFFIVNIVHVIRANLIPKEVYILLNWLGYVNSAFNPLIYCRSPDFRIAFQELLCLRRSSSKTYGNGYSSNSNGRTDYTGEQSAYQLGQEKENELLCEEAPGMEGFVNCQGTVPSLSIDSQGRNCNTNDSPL
Chain of Beta-1 adrenergic receptor (P18090 whole entry): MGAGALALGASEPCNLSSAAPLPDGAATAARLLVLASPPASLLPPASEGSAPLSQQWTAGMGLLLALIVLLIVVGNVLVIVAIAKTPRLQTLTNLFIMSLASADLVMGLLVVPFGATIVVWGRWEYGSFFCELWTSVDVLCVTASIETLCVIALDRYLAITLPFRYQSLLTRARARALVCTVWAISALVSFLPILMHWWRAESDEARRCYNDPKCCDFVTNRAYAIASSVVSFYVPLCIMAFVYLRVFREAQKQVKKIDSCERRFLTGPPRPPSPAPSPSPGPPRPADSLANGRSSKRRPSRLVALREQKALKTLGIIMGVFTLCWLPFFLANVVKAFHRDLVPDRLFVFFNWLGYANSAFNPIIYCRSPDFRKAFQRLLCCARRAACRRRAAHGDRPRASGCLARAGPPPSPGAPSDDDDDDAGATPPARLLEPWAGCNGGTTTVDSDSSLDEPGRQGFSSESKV

Compound | pIC50 [1] | pIC50 [2] | pIC50 [3] | pEC50 [4]
COC(=O)COc1ccc(C[C@@H](C)NC[C@H](O)c2cccc(Cl)c2)cc1 | 6.30 | 7.23 | 7.52 | 7.80
C[C@H](Cc1ccc(OCC(=O)O)cc1)NC[C@H](O)c1cccc(Cl)c1 | 6.72 | – | 5.89 | –
